Data: patent US7470781B2, “Formulation of stabilized cationic transfection agent(s)/nucleic acid particles” (Aventis Pharma S.A., priority 1997, dated 2008)

Experiments:
[1] = Structure of complexes by low-angle X-ray diffraction and cryo-transmission electron microscopy; format: physicochemical
Method: The cryo-transmission electron microscopy (cryo-TEM) experiments are carried out with 7 μl of prepared samples containing 0.5 mg of DNA/ml, which are placed on a carbon-coated copper grid covered with a membrane with holes. The grids are then immersed in liquid ethane so as to convert the liquid water to vitrified water. Next, this grid is installed inside a specimen holder cooled with liquid nitrogen and introduced into the microscope (Philips CM12) for visualization.
The low-angle X-ray diffraction experiments are carried out in the synchrotron (LURE) in Orsay (France) on the D43 line. The samples are prepared at 0.5 mg DNA/ml and then centrifuged. The pellets are deposited in a cell in which the two windows consist of kapton. A germanium-containing monochromator (111 reflection) allows the selection of the wavelength of 0.138 nm.
In this study, we have determined, by low-angle X-ray diffraction and by transmission electron microscopy, the structure of the cationic lipid transfectant/DNA complexes.

[2] = Size (hydrodynamic diameter) of cationic lipid/DNA complexes by photon correlation spectroscopy; format: physicochemical; conditions: component alone incubated with 1% (weight/volume) poloxalkol
Method: The measurement of the hydrodynamic diameter is carried out with a Coulter N4Plus, using plastic cells (four transparent faces) filled with 800 μl of the various solutions, the measurement being carried out at […] in unimodal mode.
The plasmid (10 μg/ml) is placed in a solution containing 150 mM NaCl and various concentrations of poloxalkol. The lipofectant RPR 120535 is then added in order to obtain a charge ratio (+/−) 2.5. The size of the complexes is then measured by photon correlation spectroscopy according to the procedure described in Methods.
The plasmid (10 μg/ml) is placed in a solution containing 150 mM NaCl at various concentrations of poloxalkol. RPR 120531 is then added in order to obtain a charge ratio (+/−) 2.5. The size of the complexes is measured by photon correlation spectroscopy (Coulter N4plus).
Table V below represents the diameter, in nm, of the RPR 120535/DNA complexes, at the charge ratio of 2.75 (+/−) and containing 0.25 mg of DNA/ml in 150 mM NaCl, stabilized with various nonionic surface-active agents.

mice = test: Transfection in vivo after systemic injection, luciferase activity in organs; set-up: unit not given here; conditions: balbc mouse, 24 hours after tail vein injection
Method: The in vivo transfections are carried out by injecting, into the vein of the tail of 30-day-old mice, 200 μl of a solution containing 0.2 mg DNA/ml combined with a cationic lipid vector. 24 hours after the injection, the mice are humanely killed and then various organs are recovered (lung, liver, heart, kidney, spleen). These organs are then ground in a lysis buffer with the aid of an Ultraturax. The ground products obtained are then centrifuged, and then 10 μl of the supernatant is collected in order to assay the luciferase activity.
We compared the gene transfer efficiencies after systemic injections of precipitated RPR 120535/DNA complexes, and of these same complexes stabilized by the addition of Pluronic F68®. […] On the other hand, when the particles are colloidally stabilized by the addition of F68®, the luciferase activity is increased by a factor of 10 in the lungs, and expression is observed in other tissues (liver, heart).
Identical experiments to those described above were carried out using another lipid: BGTC. Similar results were obtained, namely an improvement in gene transfer in the lungs and a measurable expression in the liver, the heart and the kidneys. […] Indeed, given that nonviral lipid vectors are used, these complexes might have been expected to be destabilized by the presence of these endogenous lipids in a large quantity. The results of in vivo transfection of BGTC/DOPE/DNA complexes in the absence or in the presence of poloxalkol are assembled in Table IV below: […]

Compound | periodicity of lamellar structure ([1]; in the absence and in the presence of poloxalkol) | size of complexes ([1]; presence of poloxalkol) | particles detectable by Quasi-Elastic Diffusion of light [2] | luciferase activity, Heart (mice; 0% F68) | luciferase activity, Kidneys (mice; 0% F68) | luciferase activity, Liver (mice; 0% F68) | luciferase activity, Lungs (mice; 0% F68) | luciferase activity, Heart (mice; 10% F68) | luciferase activity, Kidneys (mice; 10% F68) | luciferase activity, Liver (mice; 10% F68) | luciferase activity, Lungs (mice; 10% F68)
CC(C)CCC[C@@H](C)[C@H]1CC[C@H]2[C@@H]3CC=C4C[C@@H](OC(=O)NCCN(CCN=C(N)N)CCN=C(N)N)CC[C@]4(C)[C@H]3CC[C@]12C [BGTC] | 6.5 nm | small-sized complexes | – | – | – | – | – | – | – | – | –
CCCCCCCCCCCCCCCCCCN(CCCCCCCCCCCCCCCCCC)C(=O)CNC(=O)CNCCCNCCCCNCCCN [RPR 120535, H2N(CH2)3NH(CH2)4NH (CH2)3NHCH2COGlyN[(CH2)17CH3]2] | – | – | does not form particles | 0 | 0 | 0 | 2 ± 0.9 | 1 ± 0.4 | 0 | 2 ± 3 | 14 ± 0.9
